# Assay results taken from ChEMBL document CHEMBL6071140, “Ocotillol Derivatives Mitigate Retinal Ischemia-Reperfusion Injury by Regulating the Keap1/Nrf2/ARE Signaling Pathway” (J Med Chem, 2024).
# Experiment: Cytotoxicity against rat R28 cells assessed as decrease in cellular ATP content incubated for 24 hrs by CellTiter-Lumi Plus cell viability assay
# Type: toxicity, cell-based
# Details: r28, 24 h
row,Structure (SMILES),Activity
1,CC(C)(O)[C@H]1CC[C@@](C)([C@H]2CC[C@]3(C)[C@@H]2[C@H](O)C[C@@H]2[C@@]4(C)Cc5sc(N)nc5C(C)(C)[C@@H]4CC[C@]23C)O1,Non-Toxic
2,CC(C)(O)[C@@H]1CC[C@@](C)([C@H]2CC[C@]3(C)[C@@H]2[C@H](O)C[C@@H]2[C@@]4(C)Cc5sc(N)nc5C(C)(C)[C@@H]4CC[C@]23C)O1,Non-Toxic
3,CC(C)(O)[C@@H]1CC[C@@](C)([C@H]2CC[C@]3(C)[C@@H]2[C@H](O)C[C@@H]2[C@@]4(C)Cc5c(C(=O)NCCCN)noc5C(C)(C)[C@@H]4CC[C@]23C)O1,Non-Toxic
4,CC(C)(O)[C@H]1CC[C@@](C)([C@H]2CC[C@]3(C)[C@@H]2[C@H](O)C[C@@H]2[C@@]4(C)CC[C@H](OC(=O)CCC(=O)O)C(C)(C)[C@@H]4CC[C@]23C)O1,Non-Toxic
5,CC(C)(O)[C@@H]1CC[C@@](C)([C@H]2CC[C@]3(C)[C@@H]2[C@H](O)C[C@@H]2[C@@]4(C)Cc5c(C(=O)O)noc5C(C)(C)[C@@H]4CC[C@]23C)O1,Non-Toxic
6,CCOC(=O)c1noc2c1C[C@]1(C)[C@H]3C[C@@H](O)[C@@H]4[C@@H]([C@]5(C)CC[C@@H](C(C)(C)O)O5)CC[C@@]4(C)[C@]3(C)CC[C@H]1C2(C)C,Non-Toxic
7,CC(C)(O)[C@@H]1CC[C@@](C)([C@H]2CC[C@]3(C)[C@@H]2[C@H](O)C[C@@H]2[C@@]4(C)Cc5sc(NC(=O)c6ccccc6C(=O)O)nc5C(C)(C)[C@@H]4CC[C@]23C)O1,Non-Toxic
8,CC(C)(O)[C@@H]1CC[C@@](C)([C@H]2CC[C@]3(C)[C@@H]2[C@H](O)C[C@@H]2[C@@]4(C)CC[C@H](OC(=O)CCC(=O)O)C(C)(C)[C@@H]4CC[C@]23C)O1,Non-Toxic
9,CC(C)(O)[C@H]1CC[C@@](C)([C@H]2CC[C@]3(C)[C@@H]2[C@H](O)C[C@@H]2[C@@]4(C)Cc5c(C(=O)O)noc5C(C)(C)[C@@H]4CC[C@]23C)O1,Non-Toxic
10,CC(C)(O)[C@@H]1CC[C@@](C)([C@H]2CC[C@]3(C)[C@@H]2[C@H](O)C[C@@H]2[C@@]4(C)CC[C@H](OC(=O)CCC(=O)Nc5cccc(N)c5)C(C)(C)[C@@H]4CC[C@]23C)O1,Non-Toxic
11,CC(C)(O)[C@H]1CC[C@@](C)([C@H]2CC[C@]3(C)[C@@H]2[C@H](O)C[C@@H]2[C@@]4(C)CC[C@H](OC(=O)CCC(=O)Nc5ccccc5N)C(C)(C)[C@@H]4CC[C@]23C)O1,Non-Toxic
12,CC(C)(O)[C@@H]1CC[C@@](C)([C@H]2CC[C@]3(C)[C@@H]2[C@H](O)C[C@@H]2[C@@]4(C)Cc5c(C(=O)NCCCCCCN)noc5C(C)(C)[C@@H]4CC[C@]23C)O1,Non-Toxic
13,CC(C)(O)[C@@H]1CC[C@@](C)([C@H]2CC[C@]3(C)[C@@H]2[C@H](O)C[C@@H]2[C@@]4(C)CC[C@H](O)C(C)(C)[C@@H]4CC[C@]23C)O1,Non-Toxic
14,CC(C)(O)[C@H]1CC[C@@](C)([C@H]2CC[C@]3(C)[C@@H]2[C@H](O)C[C@@H]2[C@@]4(C)Cc5sc(NC(=O)c6ccccc6C(=O)O)nc5C(C)(C)[C@@H]4CC[C@]23C)O1,Non-Toxic
15,CC(C)(O)[C@@H]1CC[C@@](C)([C@H]2CC[C@]3(C)[C@@H]2[C@H](O)C[C@@H]2[C@@]4(C)CC[C@H](OC(=O)CCC(=O)Nc5ccccc5N)C(C)(C)[C@@H]4CC[C@]23C)O1,Non-Toxic
16,CC(C)(O)[C@H]1CC[C@@](C)([C@H]2CC[C@]3(C)[C@@H]2[C@H](O)C[C@@H]2[C@@]4(C)Cc5c(C(=O)NCCCCN)noc5C(C)(C)[C@@H]4CC[C@]23C)O1,Non-Toxic
17,CC(C)(O)[C@H]1CC[C@@](C)([C@H]2CC[C@]3(C)[C@@H]2[C@H](O)C[C@@H]2[C@@]4(C)Cc5c(C(=O)Nc6ccc(N)cc6)noc5C(C)(C)[C@@H]4CC[C@]23C)O1,Non-Toxic
18,CC(C)(O)[C@@H]1CC[C@@](C)([C@H]2CC[C@]3(C)[C@@H]2[C@H](O)C[C@@H]2[C@@]4(C)Cc5c(C(=O)Nc6ccc(N)cc6)noc5C(C)(C)[C@@H]4CC[C@]23C)O1,Non-Toxic
19,CC(C)(O)[C@@H]1CC[C@@](C)([C@H]2CC[C@]3(C)[C@@H]2[C@H](O)C[C@@H]2[C@@]4(C)CC[C@H](OC(=O)CCC(=O)NCCCN)C(C)(C)[C@@H]4CC[C@]23C)O1,Non-Toxic
20,CC(C)(O)[C@H]1CC[C@@](C)([C@H]2CC[C@]3(C)[C@@H]2[C@H](O)C[C@@H]2[C@@]4(C)CC[C@H](OC(=O)CCC(=O)NCCCN)C(C)(C)[C@@H]4CC[C@]23C)O1,Non-Toxic
21,CC(C)(O)[C@H]1CC[C@@](C)([C@H]2CC[C@]3(C)[C@@H]2[C@H](O)C[C@@H]2[C@@]4(C)Cc5sc(NC(=O)CCCC(=O)O)nc5C(C)(C)[C@@H]4CC[C@]23C)O1,Non-Toxic
22,CC(C)(O)[C@H]1CC[C@@](C)([C@H]2CC[C@]3(C)[C@@H]2[C@H](O)C[C@@H]2[C@@]4(C)CC[C@H](OC(=O)CCC(=O)Nc5ccc(N)cc5)C(C)(C)[C@@H]4CC[C@]23C)O1,Non-Toxic
23,CC(C)(O)[C@@H]1CC[C@@](C)([C@H]2CC[C@]3(C)[C@@H]2[C@H](O)C[C@@H]2[C@@]4(C)Cc5c(C(=O)NCCCCN)noc5C(C)(C)[C@@H]4CC[C@]23C)O1,Non-Toxic
24,CC(C)(O)[C@H]1CC[C@@](C)([C@H]2CC[C@]3(C)[C@@H]2[C@H](O)C[C@@H]2[C@@]4(C)CC[C@H](OC(=O)CCC(=O)Nc5cccc(N)c5)C(C)(C)[C@@H]4CC[C@]23C)O1,Non-Toxic
25,CC(C)(O)[C@H]1CC[C@@](C)([C@H]2CC[C@]3(C)[C@@H]2[C@H](O)C[C@@H]2[C@@]4(C)Cc5sc(NC(=O)CCCSSCCCC(=O)O)nc5C(C)(C)[C@@H]4CC[C@]23C)O1,Non-Toxic
26,CC(C)(O)[C@@H]1CC[C@@](C)([C@H]2CC[C@]3(C)[C@@H]2[C@H](O)C[C@@H]2[C@@]4(C)Cc5sc(NC(=O)CCCSSCCCC(=O)O)nc5C(C)(C)[C@@H]4CC[C@]23C)O1,Non-Toxic
27,CC(C)(O)[C@@H]1CC[C@@](C)([C@H]2CC[C@]3(C)[C@@H]2[C@H](O)C[C@@H]2[C@@]4(C)CC[C@H](OC(=O)CCC(=O)Nc5ccc(N)cc5)C(C)(C)[C@@H]4CC[C@]23C)O1,Non-Toxic
28,CC(C)(O)[C@@H]1CC[C@@](C)([C@H]2CC[C@]3(C)[C@@H]2[C@H](O)C[C@@H]2[C@@]4(C)Cc5sc(NC(=O)CC(=O)O)nc5C(C)(C)[C@@H]4CC[C@]23C)O1,Non-Toxic
29,CCOC(=O)c1noc2c1C[C@]1(C)[C@H]3C[C@@H](O)[C@@H]4[C@@H]([C@]5(C)CC[C@H](C(C)(C)O)O5)CC[C@@]4(C)[C@]3(C)CC[C@H]1C2(C)C,Non-Toxic
30,CC(C)(O)[C@H]1CC[C@@](C)([C@H]2CC[C@]3(C)[C@@H]2[C@H](O)C[C@@H]2[C@@]4(C)Cc5c(C(=O)NCCCN)noc5C(C)(C)[C@@H]4CC[C@]23C)O1,Non-Toxic
